Assay results taken from PMC7385131, “Mechanisms of activation and desensitization of full-length glycine receptor in lipid nanodiscs” (Nature Communications, 2020).

Assays:
[1] = molecular target: T1, zebrafish GlyRα1 (full-length glycine receptor α1) (Danio rerio, UniProt O93430); assay: cryo-EM structure in lipid nanodiscs ([…] Å) with glycine; TEVC block in oocytes; assay type: binding
T1 construct: gene glra1; homopentamer in asolectin/MSP1E3D1 nanodiscs
T1 sequence (O93430 1-444): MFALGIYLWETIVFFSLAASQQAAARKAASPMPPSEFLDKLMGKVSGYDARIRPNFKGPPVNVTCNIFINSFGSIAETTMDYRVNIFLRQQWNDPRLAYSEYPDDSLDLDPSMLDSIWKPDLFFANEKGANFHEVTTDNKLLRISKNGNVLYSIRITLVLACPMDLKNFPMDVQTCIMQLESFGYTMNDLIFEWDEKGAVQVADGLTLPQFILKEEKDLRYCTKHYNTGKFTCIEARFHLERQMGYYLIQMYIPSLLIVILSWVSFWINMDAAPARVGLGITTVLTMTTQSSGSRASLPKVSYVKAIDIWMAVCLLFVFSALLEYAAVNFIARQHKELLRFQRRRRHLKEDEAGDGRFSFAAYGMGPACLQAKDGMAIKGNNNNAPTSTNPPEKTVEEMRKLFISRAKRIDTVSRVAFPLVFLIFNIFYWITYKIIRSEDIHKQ

[2] = molecular target: T1, zebrafish GlyRα1 (full-length glycine receptor α1); assay: cryo-EM structure in lipid nanodiscs ([…] Å); TEVC in oocytes; assay type: binding
[3] = molecular target: the molecule itself; assay: cryo-EM structure; GlyR in asolectin nanodiscs (MSP1E3D1), ~0.1 mg/ml, buffer A (200 mM NaCl, 20 mM HEPES pH 8.0); no ligand, 5 mM glycine, 5 mM glycine + 3 mM picrotoxin, 1 mM glycine + 0.5 uM ivermectin, or 0.1 mM glycine + 30 uM ivermectin; C5 symmetry imposed

C=C(C)[C@@H]1[C@H]2OC(=O)[C@@H]1[C@]1(O)C[C@H]3OC34C(=O)O[C@H]2[C@@]41C.CC(C)(O)[C@@H]1[C@H]2OC(=O)[C@@H]1[C@]1(O)C[C@H]3OC34C(=O)O[C@H]2[C@@]41C (stereo partly drawn) [PTX, picrotoxin]
cryo-EM structure in lipid nanodiscs (3.51 Å) with glycine; TEVC block in oocyte [1]: an additional density was seen in the pore at the mid-level of M2 nestled between Gly2′ and Leu9′

NCC(=O)O [Gly, glycine]
cryo-EM structure in lipid nanodiscs (3.47 Å); TEVC in oocytes [2]: 3D reconstructions reveal an additional small density in the canonical neurotransmitter-binding pocket wedged at the subunit interface in the ECD

B1: full-length zebrafish glycine receptor α1 (GlyRα1) (receptor, UniProt O93430 25-444, looked up)
chain: ARKAASPMPPSEFLDKLMGKVSGYDARIRPNFKGPPVNVTCNIFINSFGSIAETTMDYRVNIFLRQQWNDPRLAYSEYPDDSLDLDPSMLDSIWKPDLFFANEKGANFHEVTTDNKLLRISKNGNVLYSIRITLVLACPMDLKNFPMDVQTCIMQLESFGYTMNDLIFEWDEKGAVQVADGLTLPQFILKEEKDLRYCTKHYNTGKFTCIEARFHLERQMGYYLIQMYIPSLLIVILSWVSFWINMDAAPARVGLGITTVLTMTTQSSGSRASLPKVSYVKAIDIWMAVCLLFVFSALLEYAAVNFIARQHKELLRFQRRRRHLKEDEAGDGRFSFAAYGMGPACLQAKDGMAIKGNNNNAPTSTNPPEKTVEEMRKLFISRAKRIDTVSRVAFPLVFLIFNIFYWITYKIIRSEDIHKQ
modifications: N-glycan at Asn62
notes: Glycine receptor subunit alpha-1, zebrafish, full-length gene, codon-optimized; residues numbered as in UniProt O93430; Homopentamer; the model begins at Pro31; No thrombin cleavage is told; also called full-length glycine α1 receptor; GlyR–Apo; source: Sf9 cells (baculovirus, pFastBac1), purified (TALON, Superose 6), reconstituted into asolectin nanodiscs with MSP1E3D1
stoichiometry N [3]: 5
